Measured values from the NIST ThermoML archive (doi:10.1021/je200972w).
± gives the expanded uncertainty stated by the source.

Details: Liquid, Ebulliometric method (Recirculating still)

| vapor or sublimation pressure (337.42 K) [kPa] | Structure (SMILES) | vapor or sublimation pressure (329 K) [kPa] |
| --- | --- | --- |
|  | CC(C)=O [acetone] | 100 ± 0.7 |
| 100 ± 0.7 | CO [methanol] |  |
